Laboratory results published in patent US20260055079A1, “PHTHALAZINONE COMPOUNDS AS PARP7 INHIBITORS” (AZKARRA THERAPEUTICS, INC., priority 2022, published 2026).

Columns and labels:
[1] = test system: interferon-sensitive response element (ISRE)-firefly luciferase; assay: ISRE luciferase assay, ISRE-Luc CT-26 cells; assay type: cell-based, mouse; conditions: 16 h, saturating doses
Experimental: 10,000 ISRE-Luc CT-26 or WT CT-26 cells were seeded into wells of a white 96-well plate and grown overnight. Compounds were serial diluted at 1000× concentration in DMSO. For dosing, compound dose response curves were dilute 1:100 in culture media, then added at 1:10 dilution to cell culture. Final DMSO concentration was 0.1%. Cells were incubated in treatment for 18 hours. Following treatment, the plates were developed using ONE-Glo Luciferase Assay system (Promega) per manufacturer directions. The luminescence signal was read on a Spectra Max i3 (Molecular Devices) plate reader with a 2 second integration time. WT CT-26 signal was background subtracted and curves were fit using a four-parameter […] regression in GraphPad Prism 9.

[2] = test system: type I interferon reporter; assay: IRSE luciferase reporter in CT-26 cells; assay type: cell-based; conditions: CT-26 cells stably expressing IRSE luciferase reporter, 16 h
Experimental: (§1) FIG. 4B provides of Western blots in FIG. 4A. Quantification was performed using BioRad ImageLab software. Curves were fit using four parameter nonlinear regression in GraphPad Prism. STAT1 and pSTAT1 levels were normalized to tubulin. Data was from 3 biological replicates. […] Treatment was as in FIG. 4A. Note: tubulin blot was the same as in FIG. 4A since samples were run on the same nitrocellulose membrane for western blot analysis. SE=short exposure; LE=long exposure. […] Treatment was as in FIG. 4A. Note: tubulin blot is the same as in FIG. 4A since samples were run on the same nitrocellulose membrane for western blot analysis. […] Quantification was performed using BioRad ImageLab software. Curves fitting was done using a four parameter nonlinear regression in GraphPad Prism. PARP7 levels were normalized to tubulin. Data was from 3 biological replicates. […] IFN-0 levels were determined by ELISA (PBL Assay Science). Statistical analysis was performed as one-way ANOVA in GraphPad Prism. ****=p<0.001. […] Luciferase levels were measured using a luciferase assay reagent (Promega).

STING = STING degradation and signaling Western blot in CT-26 cells; assay type: cell-based
Experimental: as §1, with “(Promega). […] Treatment was same as in FIG. 10A. Note: tubulin blot is the same as in FIG. 10A since samples were run on the same nitrocellulose membrane for western blot analysis. […] Treatment was same as in FIG. 10A. […] Proteins were detected by Western blot using specific antibodies.” for “(Promega).”

endogenous PARP7 = endogenous PARP7 (Mus musculus (Mouse), UniProt Q8C1B2); assay: Endogenous PARP7 protein levels in CT-26 cells (western blot); assay type: cell-based
Chain of endogenous PARP7 (Q8C1B2 whole entry): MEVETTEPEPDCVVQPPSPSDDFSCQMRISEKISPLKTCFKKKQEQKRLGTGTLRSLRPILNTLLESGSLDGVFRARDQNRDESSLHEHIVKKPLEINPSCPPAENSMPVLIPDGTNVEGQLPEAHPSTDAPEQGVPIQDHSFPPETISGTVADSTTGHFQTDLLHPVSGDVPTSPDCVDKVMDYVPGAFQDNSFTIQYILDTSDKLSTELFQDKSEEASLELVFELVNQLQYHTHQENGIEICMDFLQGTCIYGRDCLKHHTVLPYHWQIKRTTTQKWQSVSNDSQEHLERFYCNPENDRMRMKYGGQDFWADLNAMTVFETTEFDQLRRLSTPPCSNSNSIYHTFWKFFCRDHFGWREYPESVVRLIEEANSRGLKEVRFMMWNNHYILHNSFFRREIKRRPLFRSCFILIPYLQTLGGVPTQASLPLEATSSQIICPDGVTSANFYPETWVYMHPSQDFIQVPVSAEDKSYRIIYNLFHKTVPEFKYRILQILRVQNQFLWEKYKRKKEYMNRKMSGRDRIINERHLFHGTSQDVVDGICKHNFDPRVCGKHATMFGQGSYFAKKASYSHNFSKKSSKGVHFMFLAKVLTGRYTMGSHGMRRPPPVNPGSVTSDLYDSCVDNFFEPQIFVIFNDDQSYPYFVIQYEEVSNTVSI

NCI-H1373 cells [3] = assay: Cell Titer-Glo viability, NCI-H1373; assay type: cell-based; conditions: Homo sapiens, NCI-H1373, 144 h; 6 days, CellTiter-Glo
Experimental: NCI-H1373 cells were seeded in a white 96-well plate (Corning) at a density of 1,000 cells per well. After 24 hours, cells were treated with PARP7 inhibitors and incubated at 37° C. for 6 days. Cell viability was assessed using CellTiter-Glo (CTG) 2.0 (Promega). After addition of the CTG reagent (following manufacturer protocol), the plate was incubated on an orbital shaker for 15 min (protected from light) at room temperature. Chemiluminescence was measured on a Spectra Max i3 (Molecular Devices), normalized to DMSO-treated wells, and IC50 values were calculated by non-linear regression (three-parameter fit) analysis using Prism 9 (GraphPad).

PARP7 [4] = biological target: T1, PARP7 (Mus musculus (Mouse), UniProt Q8C1B2); assay: PARP7 protein levels Western blot in CT-26 cells; assay type: cell-based
Experimental: as §1, with “(Promega). […] Treatment was same as in FIG. 10A. Note: tubulin blot is the same as in FIG. 10A since samples were run on the same nitrocellulose membrane for western blot analysis. […] Treatment was same as in FIG. 10A. […] Proteins were detected by Western blot using specific antibodies.” for “(Promega).”

[5] = test system: STAT1 and phosphor-Tyr701-STAT1 (pSTAT1); assay: STAT1 and pSTAT1 Western blot in CT-26 cells; assay type: cell-based
Experimental: as §1, with “(Promega). […] Treatment was same as in FIG. 10A. Note: tubulin blot is the same as in FIG. 10A since samples were run on the same nitrocellulose membrane for western blot analysis. […] Treatment was same as in FIG. 10A. […] Proteins were detected by Western blot using specific antibodies.” for “(Promega).”

HiBiT-PARP7 = HiBiT-PARP7 (Mus musculus (Mouse), UniProt Q8C1B2); assay: Nuclear PARP7 immunofluorescence in HiBiT-PARP7 knockin CT-26 cells; assay type: cell-based; conditions: HiBiT-PARP7 KI CT-26 cells, 300 nM, 18 h
Chain of HiBiT-PARP7 (Q8C1B2 whole entry): as above

GFP-PARP7 = GFP-PARP7 (Homo sapiens (Human), UniProt Q7Z3E1); assay: Live cell imaging of GFP-PARP7 in HeLa cells; assay type: cell-based; conditions: HeLa cells overexpressing GFP-PARP7 and mRuby2-Nup90, 300 nM
Chain of GFP-PARP7 (Q7Z3E1 whole entry): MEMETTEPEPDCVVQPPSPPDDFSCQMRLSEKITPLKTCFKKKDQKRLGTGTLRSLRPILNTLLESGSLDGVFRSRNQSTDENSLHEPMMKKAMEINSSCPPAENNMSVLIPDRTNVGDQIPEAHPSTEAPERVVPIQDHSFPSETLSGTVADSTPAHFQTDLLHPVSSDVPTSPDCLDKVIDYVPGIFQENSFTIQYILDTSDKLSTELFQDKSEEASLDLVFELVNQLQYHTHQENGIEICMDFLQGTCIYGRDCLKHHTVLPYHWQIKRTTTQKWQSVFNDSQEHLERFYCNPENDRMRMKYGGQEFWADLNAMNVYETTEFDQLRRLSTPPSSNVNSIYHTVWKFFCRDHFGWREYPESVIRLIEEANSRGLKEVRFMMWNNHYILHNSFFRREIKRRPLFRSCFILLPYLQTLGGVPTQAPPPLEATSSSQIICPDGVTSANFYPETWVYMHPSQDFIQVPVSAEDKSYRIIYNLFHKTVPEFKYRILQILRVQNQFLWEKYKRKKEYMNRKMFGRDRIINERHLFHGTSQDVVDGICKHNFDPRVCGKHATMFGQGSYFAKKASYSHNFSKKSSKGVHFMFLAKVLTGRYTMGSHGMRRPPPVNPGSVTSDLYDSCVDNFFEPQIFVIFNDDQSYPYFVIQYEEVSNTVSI

[6] = test system: STAT1 and STAT1 Tyr701 phosphorylation (pSTAT1); assay: STAT1 and pSTAT1 (Tyr701) western blot in CT-26 cells; assay type: cell-based, mouse; conditions: increasing concentrations, 16 h
NCI-H1373 cells [7] = assay: Cell Titer-Glo viability assay in NCI-H1373 cells; assay type: cell-based; conditions: 6 d treatment, increasing concentrations
Text: Curves were fit using three parameter a nonlinear regression in GraphPad Prism.

secreted IFN-β = assay: Interferon-β ELISA, CT-26 cells; assay type: cell-based, mouse; conditions: saturating doses
Experimental: CT-26 cells were seeded into a 6-well plate. After 24 h, the growth media was replaced, and cells were treated with inhibitors. After treatment, growth media was harvested and assayed with PBL Verikine Mouse IFN-β ELISA kit following the manufacturer protocol.

IFN-β = IFN-β ELISA in CT-26 cells; assay type: cell-based; conditions: 300 nM, 16 h, with or without STING inhibitor H-151 (500 nM)
Experimental: as §1

PARP7 [8] = biological target: T1, PARP7; assay: Cell fractionation and PARP7 Western blot in CT-26 cells; assay type: cell-based; conditions: 300 nM, 18 h, fractionation
[9] = increasing concentrations, 16 h

- endogenous PARP7 levels (endogenous PARP7): increased PARP7 levels
- increase in PARP7 protein abundance compared to Example 10 (endogenous PARP7; saturating doses): 2 fold
- EC50 (NCI-H1373 cells [3]): 17.8 nM
- nuclear PARP7 protein levels (HiBiT-PARP7): increases nuclear PARP7 protein levels
- time to detectable increase in nuclear PARP7 levels (GFP-PARP7): ≤ 30 min
SMILES: C[C@@H](COCCC(=O)N1CCN(c2ncc(C(F)(F)F)cn2)CC1)Nc1cn[nH]c(=O)c1C(F)(F)F [RBN-2397]
- magnitude of ISRE-Luc response compared to Example 10 [1]: ~2 fold
- type I interferon reporter levels [2]: increase type I interferon reporter levels in a dose dependent manner
- STING and pIRF3 levels, time dependence (STING; 300 nM): decrease STING levels and increase pIRF3 levels in a time-dependent manner
- STING degradation and signaling (STING; [9]): induced STING degradation and signaling, but not to the same extent as a STING agonist
- PARP7 levels, time dependence (PARP7 [4]; 300 nM): increase PARP7 levels in a time-dependent manner
- PARP7 levels, dose dependence (PARP7 [4]; [9]): increase PARP7 levels in a dose-dependent manner
- STAT1 and pSTAT1 levels, time dependence ([5]; 300 nM): increase STAT1 and pSTAT1 in a time-dependent manner
- STAT1 and pSTAT1 levels, dose dependence [5, 9]: increase STAT1 and phosphor-Tyr701-STAT1 (pSTAT1) in a dose-dependent manner
- STAT1 and pSTAT1 levels [6]: dose-dependently increased STAT1 and pSTAT1 levels
- cell viability (NCI-H1373 cells [7]): decreases viability
- levels of secreted IFN-β (secreted IFN-β): increased significantly the levels of secreted IFN-β to a greater extent than Example 10
- IFN-β levels (IFN-β): increase IFN-β levels in a STING-dependent manner
- subcellular localisation of PARP7 (PARP7 [8]): PARP7 levels were only detected in nucleus
